Laboratory results: patent US20100240656A1, “COMPOUNDS AS HSP90 INHIBITORS” (ORYZON GENOMICS, S.A., priority 2007, published 2010)

Assays:
K-562 = test: Cell proliferation by MTT method, K-562; type: cell-based; details: Homo sapiens
Description: (§1) The objective of this study was to determine the influence of the compounds on cell proliferation of K-562, A-549, MCF-7, HeLa, WI-38 by MTT method. The compounds were tested over a three-fold dilution series in triplicate for the determination of EC50 of their influence on cell proliferation.
(§2) The assay is based on the cleavage of the yellow tetrazolium salt MTT into purple formazan by metabolically active cells. The MTT formazan crystals are insoluble in aqueous solution, but may be solubilized by adding the 10% SDS, then incubating the plates overnight in a humidified atmosphere (e.g., 37° C., 5% CO2). The solubilized formazan product can be photometrically quantitated using Tecan reader. An increase in the number of living cells results in an increase of total metabolic activity, which leads to a stronger color formation.
(§3) EC50 values are defined as the compound concentration at which 50% of reaction product is formed.
(§4) Test compounds were dissolved to 10 mM in 100% DMSO.
(§5) In the day of the experiment cells were seeded into all wells of 96-well plates. Serial dilution of compounds was performed in a separate 96-well plate at 20 times final assay concentration in cell culture medium (DMEM with 10% Fetal Bovine Serum). 5 μl of compound was transferred to 96-well plate containing seeded cells in cell culture medium (final total volume=100 μl). Cells were cultured in the presence of the respective test substances in the 96-well plate at 37° C. in a humidified 5% CO2 incubator for a certain period of time (24, 72 or 120 hours). Then 5 μL of thiazolyl blue tetrazolium bromide (MTT) 5 mg/mL was added to the cells and the cells were reincubated 4 hours in a humidified 5% CO2 incubator. Then 10% SDS was added into the each well. The reaction product was quantified by measuring the absorbance at 568 nm using a scanning multiwell spectrophotometer Tecan. The developed color and thereby the absorbance values directly correlate to the number of the living cells.
(§6) The data were analyzed using Microsoft Excel 2000, GraphPad Prism 3.03. […]

HeLa = test: Cell proliferation by MTT method, HeLa; type: cell-based; details: Homo sapiens
Description: as §1, §2, §3, §4, §5, §6

MCF-7 = test: Cell growth inhibition by AlamarBlue method, MCF-7; type: cell-based, human; details: Homo sapiens, MCF7; MCF-7, 72 hours; read-out: Cell growth inhibition values (EC50) obtained with AlamarBlue method
Description: (§7) The human colon cancer cell line HCT-116 and the human breast cell lines MCF-7 and SKBr3 were from the American Type Culture Collection (ATCC; CCL-247, HTB-22 and HTB-30, respectively).
(§8) The HCT-116 and SKBr3 cell lines were maintained in DMEM GlutaMAX (Invitrogen) supplemented with 10% fetal calf serum and the MCF-7 cell line was maintained in RPMI1640 GlutaMAX (Invitrogen) containing 1 mM sodium pyruvate and 10% fetal calf serum. Cells were grown in a humidified incubator at 37° C. in 5% CO2
(§9) Cells were plated in 96-well plates (Costar, 3596) at a density of 6000 cells/well in 50 μL medium 24 h before addition of the compounds. Compounds were then added in 8 concentrations, each in triplicate (dilution series of 1 to 3). To do so, a compound-dilution plate at 200× the screening concentrations was prepared in DMSO 100% (Sigma, 154938). Then, 1.7 μL of the 200× diluted compounds were transferred to a new plate and 170 μL of media were added and mixed with the pipette (plate at 2×). Columns 11 and 12 of this plate (controls) were filled with 1% DMSO in cell media (i.e. 1.7 μL DMSO and 170 μL cell media). Finally, 50 μL of this intermediate plate at 2× were transferred to the plate containing the seeded cells and slowly shaken manually. Cells were grown as described above. AlamarBlue viability assay (Biosource, Invitrogen, DAL1100) was performed 72 hours later following manufacturer's protocol. In brief, AlamarBlue diluted in media was added to cells to have a 5% solution (a 2× solution was prepared in media and 100 μL of this solution were transferred to each well, i.e. final volume of 200 μL). Cells were incubated at 37° C., 3 hours and at room temperature for an additional 30 min. Cells with no compound and, cells with no compound and lysed with triton X-100 (30 μL/well added 10 min before treatment with AlamarBlue) were used as controls (6 replicates of each). Fluorescence was monitored at 530 nm excitation and 590 nm emission wavelengths. Results were quantified using ELx800 Universal Microplate Reader (Bio-Tek Instruments, Inc.). EC50 were calculated as the dose of compound required to inhibit cell growth by 50%.

SKBr3 = test: Cell growth inhibition by AlamarBlue method, SKBr3; type: cell-based; details: Homo sapiens, SK-BR-3; SKBr3, 72 hours; read-out: Cell growth inhibition values (EC50) obtained with AlamarBlue method
Description: as §7, §8, §9

EC50 (K-562; K562, 24 h, K 562, incubation 1 day) [µM]	EC50 (K-562; K562, 72 h, K 562, incubation 3 days) [µM]	EC50 (K-562; K562, 120 h, K 562, incubation 5 days) [µM]	EC50 (HeLa; 24 h, incubation 1 day) [µM]	EC50 (HeLa; 72 h, incubation 3 days) [µM]	EC50 (HeLa; 120 h, incubation 5 days) [µM]	EC50 (MCF-7) [µM]	EC50 (SKBr3) [µM]	Compound
> 100	12.2	9.1	> 100	14.6	8.6	15.9	–	NCCCCCn1c(Sc2cc3c(cc2I)OCO3)nc(C(N)=O)c1N [Example 6, 5-amino-1-(5-amino-pentyl)-2-(6-iodo-benzo[1,3]dioxol-5-ylsulfanyl)-1H-imidazole-4-carboxamide]
–	–	–	–	–	–	–	24 to 30	CCCCn1c(Sc2cc3c(cc2I)OCO3)nc(C(N)=O)c1N [Example 10, 5-amino-1-butyl-2-(6-iodo-benzo[1,3]dioxol-5-ylsulfanyl)-1H-imidazole-4-carboxamide]
